{"source": "paper PMC3367438", "about": "(2011)", "target": "Aβ42 (β-amyloid peptide) (Homo sapiens, UniProt P05067)", "sequence (P05067 672-713 limits assumed)": "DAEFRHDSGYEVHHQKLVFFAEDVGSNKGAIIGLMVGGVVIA", "test": "fluorescence polarization of the intrinsically fluorescent probe", "type": "binding"}
{"compound": "COc1cc(C=CC(=O)C(Cc2cn(CCCCCCNC(=O)CCNC(=O)CCNC(=O)COC3CCC4(C)C(=CCC5C4CCC4(C)C(C(C)CCCC(C)C)CCC54)C3)nn2)C(=O)C=Cc2ccc(O)c(OC)c2)ccc1O", "note": "(stereo not shown) [compound 7, BMAOI 14]", "values": [{"measurement": "Kd", "result": 830, "unit": "nM"}]}
